“Also recorded” adds a separate entry of the source.
Tests used:
mouse model of Duchenne = conditions: inhibition of calcineurin; cited from earlier work
scgd−/− mice [1] = assay: Muscle weight-to-tibia length ratios (pseudo-hypertrophy) in treated scgd−/− mice; format: in vivo
Method: (§1) Different dissected muscles, gastrocnemius, quadriceps, tibialis anterior and heart muscles, were weighed and muscle weight (MW)-to-tibia length (TL) ratios (MW/TL) were determined. Results in FIG. 2(a) and FIG. 2(c) are presented as means±SEM (standard error of the means). A one-way ANOVA was used to compare means among 3 or more independent groups. A Newman-Keuls post hoc test was applied whenever multiple comparisons were conducted using InStat 3.0 (GraphPad software from Science Inc.). Values were considered significant when p<0.05.
In response to the numerous degeneration/regeneration cycles, scgd—/− mice initially presented with hypertrophic skeletal muscles as are seen in subjects suffering from LGMD. […] Reduction of skeletal muscular hypertrophy was about 1.3 fold in gastrocnemius (Gastroc.), quadriceps (Quad.) and tibialis anterior (TA) and about 1.2 fold in heart muscle (Heart) of D-[MeAla]^3-[EtVal]^4-CsA-treated scgd−/− mice compared to vehicle-treated animals.

scgd−/− mice [2] = assay: Hematoxylin- and eosin-stained histological sections of quadriceps; format: in vivo; conditions: 50 mg/kg/day subcutaneous
Excerpt: FIG. 2(b) represents reduction of muscle pathology after administration of D-[MeAla]^3-[EtVal]^4-CsA in Scgd−/− mice observed in representative hematoxylin- and eosin-stained sections of quadriceps from wild type (Wt) mice and scgd−/− mice treated with D-[MeAla]^3-[EtVal]^4-CsA. Corresponding vehicle controls are also shown.
as §1
Reduced pathology in the scgd−/− mice treated with D-[MeAla]^3-[EtVal]^4-CsA was also observed in histological slides of quadriceps (FIG. 2(b)).

scgd−/− mice [3] = assay: Percentage fibrosis in muscles (hydroxyproline content / trichrome-stained sections); format: in vivo; conditions: trichrome-stained sections of diaphragm, tibialis anterior, gastrocnemius, quadriceps
Excerpt: FIG. 2(c) represents reduction of muscle pathology after administration of D-[MeAla]^3-[EtVal]^4-CsA in scgd−/− mice as assessed by quantitation of fibrotic areas in trichrome-stained sections from diaphragm (Diaph.), tibialis anterior (TA), gastrocnemius (Gastroc.), quadriceps (Quad). Assessed were sections from wild type (Wt) mice treated with either vehicle (white bar) or D-[MeAla]^3-[EtVal]^4-CsA (black bar) and from scgd−/− mice treated with either vehicle (gray bar or second to last bar in group) or D-[MeAla]^3-[EtVal]^4-CsA (dotted bar or last bar of group).
Different dissected muscles, gastrocnemius, quadriceps, tibialis anterior and heart muscles, were weighed and muscle weight (MW)-to-tibia length (TL) ratios (MW/TL) were determined. Results in FIG. 2(a) and FIG. 2(c) are presented as means±SEM (standard error of the means). A one-way ANOVA was used to compare means among 3 or more independent groups. […]
Percentage fibrosis was assessed by means of a biochemical assay that quantified hydroxyproline content (Parsons et al., Am. J. Pathol., 2006, 168:1975-1985) in diaphragm (Diaph.), tibialis anterior (TA), gastrocnemius (Gastroc.) and quadriceps (Quad) muscles from wild type and scgd−/− mice treated or not treated with D-[MeAla]^3-[EtVal]^4-CsA.

scgd−/− mice [4] = assay: Quantitation of the distribution of fiber areas in skeletal muscles; format: in vivo; conditions: 50 mg/kg/day subcutaneous for 6 weeks; for Fiber area distribution / heterogeneity: 50 mg/kg/day
Excerpt: FIG. 3(a) represents reduction of fiber area heterogeneity in muscle from scgd−/− mice after the administration of D-[MeAla]^3-[EtVal]^4-CsA as assessed by quantitation of the distribution of fiber areas in tibialis anterior (muscle). The study included wild type (Wt) mice treated with either vehicle (white bar) or D-[MeAla]^3-[EtVal]^4-CsA (black bar) and scgd−/− mice treated with either vehicle (gray bar or second to last bar in group) or D-[MeAla]^3-[EtVal]^4-CsA (dotted bar or last bar of group).
FIG. 3(b) represents reduction of fiber area heterogeneity in muscle from scgd−/− mice after the administration of D-[MeAla]^3-[EtVal]^4-CsA as assessed by quantitation of the distribution of fiber areas in gastrocnemius. Included in the study were wild type (Wt) mice treated with either vehicle (white bar) or D-[MeAla]^3-[EtVal]^4-CsA (black bar) and scgd−/− mice treated with either vehicle (gray bar or second to last bar in group) or D-[MeAla]^3-[EtVal]^4-CsA (dotted bar or last bar of group).
FIG. 3(c) represents reduction of fiber area heterogeneity in muscle from scgd−/− mice after the administration of D-[MeAla]^3-[EtVal]^4-CsA as assessed by quantitation of the distribution of fiber areas in quadriceps muscle. Measurements were carried out on wild type (Wt) mice treated with either vehicle (white bar) or D-[MeAla]^3-[EtVal]^4-CsA (black bar) and scgd−/− mice treated with either vehicle (gray bar or second to last bar in group) or D-[MeAla]^3-[EtVal]^4-CsA (dotted bar or last bar of group).
Scgd−/− mice were administered subcutaneously with either D-[MeAla]^3-[EtVal]^4-CsA at a dose of 50 mg/kg/day or vehicle for 6 weeks. […] The administration of the non-immunosuppressive D-[MeAla]^3-[EtVal]^4-CsA to scgd−/− mice reduced the regeneration rate of the fibers and normalized partially the distribution of small and large fibers.

Row | Substance | Effect on muscle pathology (mouse model of Duchenne) | Reduction of skeletal muscular hypertrophy (MW/TL) compared to vehicle-treated animals (scgd−/− mice [1]; gastrocnemius, 50 mg/kg/day subcutaneous, 4 to 10 weeks of age) | Effect on disease-associated increase in muscle weight (FIG. 2(a)) (scgd−/− mice [1]; gastrocnemius, quadriceps, tibialis anterior, heart) | Reduction of hypertrophy (MW/TL) compared to vehicle-treated animals (scgd−/− mice [1]; heart muscle, 50 mg/kg/day subcutaneous, 4 to 10 weeks of age) | Reduction of skeletal muscular hypertrophy (MW/TL) compared to vehicle-treated animals (scgd−/− mice [1]; quadriceps, 50 mg/kg/day subcutaneous, 4 to 10 weeks of age) | Reduction of skeletal muscular hypertrophy (MW/TL) compared to vehicle-treated animals (scgd−/− mice [1]; tibialis anterior, 50 mg/kg/day subcutaneous, 4 to 10 weeks of age) | Myofiber organization and fiber area distributions in histological slides (scgd−/− mice [2]) | Effect on fibrotic areas (FIG. 2(c)) (scgd−/− mice [3]) | Fiber area distribution / heterogeneity (scgd−/− mice [4]; gastrocnemius) | Fiber area distribution / heterogeneity (scgd−/− mice [4]; quadriceps) | Population of small fibers compared to vehicle-treated scgd−/− mice (scgd−/− mice [4]; three skeletal muscles) | Fiber area distribution / heterogeneity (scgd−/− mice [4]; tibialis anterior)
1 | cyclosporin A [CsA] | deleterious |  |  |  |  |  |  |  |  |  |  | 
2 | [D-MeAla]^3-[EtVal]^4-CsA [D-[MeAla]^3-[EtVal]^4-CsA] |  | about 1.3 fold | prevents an increase in muscle weight | about 1.2 fold | about 1.3 fold | about 1.3 fold | Improvement in myofiber organization and normalization of fiber area distributions | reduced fibrosis | normalized fiber area heterogeneity; also recorded: partially normalized | normalized fiber area heterogeneity; also recorded: partially normalized | Less small fibers | normalized fiber area heterogeneity; also recorded: partially normalized
